From patent US10280149B2, “Therapeutic compounds and uses thereof” (GENENTECH, INC., priority 2015, dated 2019)

biological target: Full length KDM2B (Homo sapiens (Human), UniProt Q8NHM5); experiment: KDM2B TR-FRET assay for determining inhibitor IC50; type: biochemical; details: TR-FRET (HTRF), biotin-H3K36me2 peptide substrate, 2-OG 0.3 μM or 6 μM
Source text: KDM2B TR-FRET Assay for Determining Inhibitor IC50
The KDM2B TR-FRET Assay described above represents an additional embodiment of the invention.

Chain of Full length KDM2B (Q8NHM5 whole entry): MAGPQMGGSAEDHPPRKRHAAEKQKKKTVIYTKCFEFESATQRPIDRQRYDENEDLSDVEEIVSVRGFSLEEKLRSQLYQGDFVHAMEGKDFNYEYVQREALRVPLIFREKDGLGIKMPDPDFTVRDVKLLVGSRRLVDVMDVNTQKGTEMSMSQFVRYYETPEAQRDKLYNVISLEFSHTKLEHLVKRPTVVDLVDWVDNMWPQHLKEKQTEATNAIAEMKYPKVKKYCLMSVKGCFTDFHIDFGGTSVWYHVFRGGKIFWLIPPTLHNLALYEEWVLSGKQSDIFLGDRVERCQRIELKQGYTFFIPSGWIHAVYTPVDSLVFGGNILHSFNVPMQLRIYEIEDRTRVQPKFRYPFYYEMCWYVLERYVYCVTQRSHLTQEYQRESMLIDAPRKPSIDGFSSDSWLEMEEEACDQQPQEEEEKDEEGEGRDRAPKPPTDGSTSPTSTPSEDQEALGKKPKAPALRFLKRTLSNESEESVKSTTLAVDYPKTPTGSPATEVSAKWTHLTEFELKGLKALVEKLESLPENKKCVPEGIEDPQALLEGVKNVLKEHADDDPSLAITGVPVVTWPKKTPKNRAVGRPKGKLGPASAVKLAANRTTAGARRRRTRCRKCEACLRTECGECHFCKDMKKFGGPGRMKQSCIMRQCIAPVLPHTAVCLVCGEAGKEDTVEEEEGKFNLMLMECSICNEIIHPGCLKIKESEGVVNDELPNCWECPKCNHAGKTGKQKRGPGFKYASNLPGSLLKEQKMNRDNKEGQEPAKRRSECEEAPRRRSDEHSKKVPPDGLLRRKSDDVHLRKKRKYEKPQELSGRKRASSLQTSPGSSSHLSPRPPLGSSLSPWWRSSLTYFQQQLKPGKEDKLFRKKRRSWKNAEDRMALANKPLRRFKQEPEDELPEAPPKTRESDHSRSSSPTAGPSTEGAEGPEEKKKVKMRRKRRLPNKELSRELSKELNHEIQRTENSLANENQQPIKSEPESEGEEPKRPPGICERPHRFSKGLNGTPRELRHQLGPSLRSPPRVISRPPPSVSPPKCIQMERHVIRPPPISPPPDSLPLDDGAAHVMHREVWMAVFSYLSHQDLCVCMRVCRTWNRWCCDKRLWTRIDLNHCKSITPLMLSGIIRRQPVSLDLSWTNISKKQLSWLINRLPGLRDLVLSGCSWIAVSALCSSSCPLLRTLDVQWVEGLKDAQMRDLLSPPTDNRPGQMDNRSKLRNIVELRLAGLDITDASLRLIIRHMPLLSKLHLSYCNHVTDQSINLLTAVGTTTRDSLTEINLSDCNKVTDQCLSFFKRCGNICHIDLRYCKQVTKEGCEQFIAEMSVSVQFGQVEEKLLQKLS

**Q.** For `COc1ccc2cc(C(=O)[C@@H]3CN(C4CCC4)CC[C@@H]3C(C)C)ccc2c1CC#N` (stereo in doubt) [Example 186a, 2-(6-(1-cyclobutyl-4-isopropylpiperidine-3-carbonyl)-2-methoxynaphthalen-1-yl)acetonitrile], which IC50 is on record?
**A.** Its IC50 is 70.1 nM.

**Q.** Which IC50 does the source give for `COc1ccc2cc(C(=O)[C@H]3CN(C4CCC4)CC[C@H]3C(C)C)ccc2c1CC#N` (stereo in doubt) [Example 186b, 2-(6-(1-cyclobutyl-4-isopropylpiperidine-3-carbonyl)-2-methoxynaphthalen-1-yl)acetonitrile] here?
**A.** The IC50 was 2.12 nM.

**Q.** `O=C(c1cccc(Cl)c1)C1CCCN(C2CCCC2)C1` (stereo not shown) [Example 3, (3-chlorophenyl)-(1-cyclopentyl-3-piperidyl)methanone] was tested. Which IC50 did it give?
**A.** The IC50 was 23000 nM.

**Q.** `COc1ccc(C(=O)C2CCCN(C3CCC3)C2)c(OC)c1` (stereo not shown) [Example 5, (1-cyclobutyl-3-piperidyl)-(2,4-dimethoxyphenyl)methanone] was tested. Which IC50 did it give?
**A.** The IC50 was 2500 nM.

**Q.** `COc1ccc2cc(C(=O)C3CCCN(C4CCOCC4)C3)ccc2c1` (stereo not shown) [Example 6, (6-methoxy-2-naphthyl)-(1-tetrahydropyran-4-yl-3-piperidyl)methanone] was tested. Which IC50 did it give?
**A.** Its IC50 is 2600 nM.

**Q.** For `COc1ccc2cc(C(=O)[C@@H]3CCCN(CC4CC4)C3)ccc2c1` [Example 7, [(3R)-1-(cyclopropylmethyl)-3-piperidyl]-(6-methoxy-2-naphthyl)methanone], which IC50 is on record?
**A.** The IC50 was 123 nM.

**Q.** How did the IC50 turn out when `COc1ccc2cc(C(=O)[C@H]3CCCN(CC4CC4)C3)ccc2c1` [Example 8, [(3S)-1-(cyclopropylmethyl)-3-piperidyl]-(6-methoxy-2-naphthyl)methanone] was run?
**A.** Its IC50 is 2700 nM.

**Q.** With `COc1ccc2cc(C(=O)[C@@H]3CCCN(C4CCCC4)C3)ccc2c1` [Example 9, [(3R)-1-cyclopentyl-3-piperidyl]-(6-methoxy-2-naphthyl)methanone] as the compound, how does the IC50 read?
**A.** The IC50 was 3000 nM.

**Q.** With `COc1ccc2cc(C(=O)[C@H]3CCCN(C4CCCC4)C3)ccc2c1` [Example 10, [(3S)-1-cyclopentyl-3-piperidyl]-(6-methoxy-2-naphthyl)methanone] as the compound, how does the IC50 read?
**A.** The IC50 was 56.6 nM.

**Q.** Which IC50 does the source give for `COc1ccc(C(=O)[C@H]2CCCN(C3CCC3)C2)c(OC)c1` [Example 11, [(3S)-1-cyclobutyl-3-piperidyl]-(2,4-dimethoxyphenyl)methanone] here?
**A.** The IC50 was 153 nM.

**Q.** For `COc1ccc(C(=O)[C@@H]2CCCN(C3CCC3)C2)c(OC)c1` [Example 12, [(3R)-1-cyclobutyl-3-piperidyl]-(2,4-dimethoxyphenyl)methanone], which IC50 is on record?
**A.** The IC50 was 9000 nM.

**Q.** `COc1ccc2cc(C(=O)C3CCCN(C4COC4)C3)ccc2c1` (stereo not shown) [Example 14, (6-methoxy-2-naphthyl)-[1-(oxetan-3-yl)-3-piperidyl]methanone] was tested. Which IC50 did it give?
**A.** The IC50 was 1200 nM.

**Q.** With `COc1ccc2cc(C(=O)C3CCCN(C4CCOC4)C3)ccc2c1` (stereo not shown) [Example 15, (6-methoxy-2-naphthyl)-(1-tetrahydrofuran-3-yl-3-piperidyl)methanone] as the compound, how does the IC50 read?
**A.** Its IC50 is 430 nM.

**Q.** For `CCCN1CCCC(C(=O)c2ccc3cc(OC)ccc3c2)C1` (stereo not shown) [Example 18, (6-methoxy-2-naphthyl)-(1-propyl-3-piperidyl)methanone], which IC50 is on record?
**A.** The IC50 was 161 nM.

**Q.** Which IC50 does the source give for `O=C(c1cccc(Oc2ccccc2)c1)C1CCCN(CC2CC2)C1` (stereo not shown) [Example 21, [1-(cyclopropylmethyl)-3-piperidyl]-(3-phenoxyphenyl)methanone] here?
**A.** The IC50 was 461 nM.

**Q.** How did the IC50 turn out when `O=C(c1ccc(C(F)(F)F)cc1)C1CCCN(CC2CC2)C1` (stereo not shown) [Example 22, [1-(cyclopropylmethyl)-3-piperidyl]-[4-(trifluoromethyl)phenyl]methanone] was run?
**A.** The IC50 was 1400 nM.

**Q.** `O=C(c1ccc(Oc2ccccc2)cc1)C1CCCN(CC2CC2)C1` (stereo not shown) [Example 23, [1-(cyclopropylmethyl)-3-piperidyl]-(4-phenoxyphenyl)methanone] was tested. Which IC50 did it give?
**A.** Its IC50 is 2100 nM.

**Q.** `O=C(c1cccc(-c2ccccc2)c1)C1CCCN(CC2CC2)C1` (stereo not shown) [Example 25, [1-(cyclopropylmethyl)-3-piperidyl]-(3-phenylphenyl)methanone] was tested. Which IC50 did it give?
**A.** Its IC50 is 1400 nM.

**Q.** How did the IC50 turn out when `O=C(c1cc(F)c2ccccc2c1)C1CCCN(CC2CC2)C1` (stereo not shown) [Example 26, [1-(cyclopropylmethyl)-3-piperidyl]-(4-fluoro-2-naphthyl)methanone] was run?
**A.** Its IC50 is 551 nM.

**Q.** How did the IC50 turn out when `O=C(c1cccc(Oc2ccc(F)cc2)c1)C1CCCN(CC2CC2)C1` (stereo not shown) [Example 27, [1-(cyclopropylmethyl)-3-piperidyl]-[3-(4-fluorophenoxy)phenyl]methanone] was run?
**A.** Its IC50 is 221 nM.

**Q.** How did the IC50 turn out when `O=C(c1cccc(Oc2ccccc2)c1)[C@H]1CCCN(CC2CC2)C1` [Example 28, [(3S)-1-(cyclopropylmethyl)-3-piperidyl]-(3-phenoxyphenyl)methanone] was run?
**A.** Its IC50 is 1700 nM.

**Q.** For `O=C(c1cccc(Oc2ccccc2)c1)[C@@H]1CCCN(CC2CC2)C1` [Example 29, [(3R)-1-(cyclopropylmethyl)-3-piperidyl]-(3-phenoxyphenyl)methanone], which IC50 is on record?
**A.** Its IC50 is 148 nM.

**Q.** With `O=C(c1ccc(Oc2ccccc2)cc1)[C@@H]1CCCN(CC2CC2)C1` [Example 30, [(3R)-1-(cyclopropylmethyl)-3-piperidyl]-(4-phenoxyphenyl)methanone] as the compound, how does the IC50 read?
**A.** The IC50 was 5900 nM.

**Q.** `O=C(c1ccc(Oc2ccccc2)cc1)[C@H]1CCCN(CC2CC2)C1` [Example 31, [(3S)-1-(cyclopropylmethyl)-3-piperidyl]-(4-phenoxyphenyl)methanone] was tested. Which IC50 did it give?
**A.** Its IC50 is 136 nM.

**Q.** Which IC50 does the source give for `O=C(c1ccc(-c2ccccc2)cc1)[C@@H]1CCCN(CC2CC2)C1` [Example 32, [(3R)-1-(cyclopropylmethyl)-3-piperidyl]-(4-phenylphenyl)methanone] here?
**A.** The IC50 was 4100 nM.

**Q.** For `O=C(c1ccc(-c2ccccc2)cc1)[C@H]1CCCN(CC2CC2)C1` [Example 33, [(3S)-1-(cyclopropylmethyl)-3-piperidyl]-(4-phenylphenyl)methanone], which IC50 is on record?
**A.** The IC50 was 95.4 nM.

**Q.** Which IC50 does the source give for `Cc1ccc(-c2ccc(C(=O)C3CCCN(CC4CC4)C3)cc2)cc1` (stereo not shown) [Example 34, [1-(cyclopropylmethyl)-3-piperidyl]-[4-(p-tolyl)phenyl]methanone] here?
**A.** Its IC50 is 402 nM.

**Q.** With `O=C(c1cc(CO)c2ccccc2c1)C1CCCN(CC2CC2)C1` (stereo not shown) [Example 35, [1-(cyclopropylmethyl)-3-piperidyl]-[4-(hydroxymethyl)-2-naphthyl]methanone] as the compound, how does the IC50 read?
**A.** The IC50 was 169 nM.

**Q.** How did the IC50 turn out when `O=C(c1ccc(-c2ccccc2)nc1)C1CCCN(CC2CC2)C1` (stereo not shown) [Example 36, [1-(cyclopropylmethyl)-3-piperidyl]-(6-phenyl-3-pyridyl)methanone] was run?
**A.** Its IC50 is 533 nM.

**Q.** `NCc1cc(C(=O)C2CCCN(CC3CC3)C2)cc2ccccc12` (stereo not shown) [Example 37, [4-(aminomethyl)-2-naphthyl]-[1-(cyclopropylmethyl)-3-piperidyl]methanone] was tested. Which IC50 did it give?
**A.** Its IC50 is 620 nM.

**Q.** With `O=C(c1ccc(-c2ccccn2)cc1)C1CCCN(CC2CC2)C1` (stereo not shown) [Example 38, [1-(cyclopropylmethyl)-3-piperidyl]-[4-(2-pyridyl)phenyl]methanone] as the compound, how does the IC50 read?
**A.** The IC50 was 596 nM.

**Q.** `CC(=O)NCc1cc(C(=O)C2CCCN(CC3CC3)C2)cc2ccccc12` (stereo not shown) [Example 39, N-[[3-[1-(cyclopropylmethyl)piperidine-3-carbonyl]-1-naphthyl]methyl]acetamide] was tested. Which IC50 did it give?
**A.** Its IC50 is 460 nM.

**Q.** With `CNC(=O)c1cc(C(=O)C2CCCN(CC3CC3)C2)cc2ccccc12` (stereo not shown) [Example 40, 3-[1-(cyclopropylmethyl)piperidine-3-carbonyl]-N-methyl-naphthalene-1-carboxamide] as the compound, how does the IC50 read?
**A.** Its IC50 is 626 nM.

**Q.** Which IC50 does the source give for `CNC(=O)c1cc(C(=O)C2CCCN(C3CCCC3)C2)cc2ccccc12` (stereo not shown) [Example 41, 3-(1-cyclopentylpiperidine-3-carbonyl)-N-methyl-naphthalene-1-carboxamide] here?
**A.** The IC50 was 700 nM.
